Experimental data published in patent publication US8067424B2, “Selective inhibitors for cyclin-dependent kinases” (Emory University, priority 2007, dated 2011).
Like-named read-outs stand apart in the source and are kept apart here.

Columns and labels:
HIPK3 = HIPK3 (Homo sapiens, UniProt Q9H422); experiment: Kinase screen: HIPK3 assay; format: biochemical; conditions: read-out: Mean Remaining Enzyme Activity (%)
Description: Generally, the same procedure was used for all assays. Since the total assay volume was 25.5 microliters, 0.5 microliters of inhibitors at 51× assay concentration were added to the plates before any other addition.
The basic procedure was to add 0.5 microliters inhibitor/control in DMSO to plate. Fifteen microliters of enzyme/substrate/buffer mix were added and incubated for 5 min. Ten microliters MgATP at the relevant concentration were added and incubated for 30 min. The assay was stopped by adding 5 microliters of 3% orthophosphoric acid. The assay was transferred to a p81 filter plate and read in a scintillation counter of 30 sec/well. Note that this assay procedure was not followed for MKK1, which instead involved a two-step assay, and PKC alpha, which required the addition of lipid vesicles.
HIPK3 assay: 5-20 mU of HIPK3 (diluted in 50 mM Tris (pH 7.5), 0.1 mM EGTA, 1 mg/ml BSA, 0.1%, b-Mercaptoethanol) was assayed against MBP in a final volume of 25.5 μl containing 50 mM Tris (pH 7.5), 0.1 mM EGTA, 0.1%, b-Mercaptoethanol, 0.33 mg/ml MBP, 10 mM magnesium acetate and 0.02 mM [33P-g-ATP] (500-1000 cpm/pmole) and incubated for 30 mins at room temperature. Assays were stopped by addition of 5 μl of 0.5M (3%) orthophosphoric acid. Assays were harvested onto P81 Unifilter plates using a wash buffer of 50 mM orthophosphoric acid.

[1] = system: RNA polymerase II phosphorylation (P-Ser-2, P-Ser-5); experiment: Inhibition of phosphorylation of RNA polymerase II (immunoblot, MCF-7 cells); format: cell-based; conditions: MCF-7 cells treated 4 hours
Description: MCF-7 breast cancer cells were treated with BS-181 or Roscovitine at the concentrations shown in FIG. 2 for 4 hours prior to harvesting of cells. […] Immunblotting for β-actin was used as loading control for protein content.

MCF-7 tumors = experiment: MCF-7 tumor growth in nude mice, BS-181 i.p.; format: in vivo, nu/nu-BALB/c athymic nude mice; conditions: i.p. twice daily, 14 days
From the text: This example illustrates that BS-181 is capable of inhibiting MCF-7 tumor growth in nude mice. The following protocol was used in these mouse xenograft experiments. Female, 7-week-old, nu/nu-BALB/c athymic nude mice were purchased from Harlan Olac Ltd. The animals were housed in isolated ventilator cages (IVC) in a 12-h light/dark cycle. The animals received sterilized water and sterile rodent food ad libitum. All procedures were approved by the CBS, Imperial College London Ethics Committee and were covered by a Government Home Office project license for these specific studies. Before inoculation of animal with cells, a 0.72 mg 17β Estradiol 60-day release pellet was implanted subcutaneously (Innovative Research of America, USA). For insertion, animals were anaesthetised, an incision was made to the flank of the animals under aseptic conditions and pellets were implanted. The wound was closed with stainless steel sutures. MCF-7 cells (5×10^6 cells) were injected subcutaneously in not more than 0.1 ml volume into the flank of the animals. Tumor measurements were performed twice per week, and volumes were calculated using the formula ½ [length (mm)]×[width (mm)]^2. […] Throughout the 14-day treatment period animal weights were determined each day and tumor volume every 48 hours.

MOLT-4 [2] = experiment: cells; conditions: Homo sapiens
SK-MEL-5 = experiment: cells; conditions: Homo sapiens
NCI-H226 = experiment: cells; conditions: Homo sapiens
SR = experiment: cells; conditions: Homo sapiens
NCI/ADR-RES = experiment: cells; conditions: Homo sapiens
SK-MEL-2 = experiment: cells; conditions: Homo sapiens
M14 = experiment: cells; conditions: Homo sapiens
MOLT-4 [3] = system: MOLT-4
SNB-75 = experiment: cells; conditions: Homo sapiens
[4] = SF-268, log10 concentration −4.0
[5] = SF-268, log10 concentration −5.0
[6] = SF-268, log10 concentration −6.0
[7] = SF-268, log10 concentration −7.0
[8] = SF-268, log10 concentration −8.0
[9] = NCI-H522, log10 concentration −4.0
[10] = NCI-H522, log10 concentration −5.0
[11] = NCI-H522, log10 concentration −6.0
[12] = NCI-H522, log10 concentration −7.0
[13] = NCI-H522, log10 concentration −8.0
[14] = MOLT-4, log10 concentration −4.0
[15] = MOLT-4, log10 concentration −6.0
[16] = MOLT-4, log10 concentration −7.0
[17] = MOLT-4, log10 concentration −8.0

Chain of HIPK3 (Q9H422 whole entry, species assumed): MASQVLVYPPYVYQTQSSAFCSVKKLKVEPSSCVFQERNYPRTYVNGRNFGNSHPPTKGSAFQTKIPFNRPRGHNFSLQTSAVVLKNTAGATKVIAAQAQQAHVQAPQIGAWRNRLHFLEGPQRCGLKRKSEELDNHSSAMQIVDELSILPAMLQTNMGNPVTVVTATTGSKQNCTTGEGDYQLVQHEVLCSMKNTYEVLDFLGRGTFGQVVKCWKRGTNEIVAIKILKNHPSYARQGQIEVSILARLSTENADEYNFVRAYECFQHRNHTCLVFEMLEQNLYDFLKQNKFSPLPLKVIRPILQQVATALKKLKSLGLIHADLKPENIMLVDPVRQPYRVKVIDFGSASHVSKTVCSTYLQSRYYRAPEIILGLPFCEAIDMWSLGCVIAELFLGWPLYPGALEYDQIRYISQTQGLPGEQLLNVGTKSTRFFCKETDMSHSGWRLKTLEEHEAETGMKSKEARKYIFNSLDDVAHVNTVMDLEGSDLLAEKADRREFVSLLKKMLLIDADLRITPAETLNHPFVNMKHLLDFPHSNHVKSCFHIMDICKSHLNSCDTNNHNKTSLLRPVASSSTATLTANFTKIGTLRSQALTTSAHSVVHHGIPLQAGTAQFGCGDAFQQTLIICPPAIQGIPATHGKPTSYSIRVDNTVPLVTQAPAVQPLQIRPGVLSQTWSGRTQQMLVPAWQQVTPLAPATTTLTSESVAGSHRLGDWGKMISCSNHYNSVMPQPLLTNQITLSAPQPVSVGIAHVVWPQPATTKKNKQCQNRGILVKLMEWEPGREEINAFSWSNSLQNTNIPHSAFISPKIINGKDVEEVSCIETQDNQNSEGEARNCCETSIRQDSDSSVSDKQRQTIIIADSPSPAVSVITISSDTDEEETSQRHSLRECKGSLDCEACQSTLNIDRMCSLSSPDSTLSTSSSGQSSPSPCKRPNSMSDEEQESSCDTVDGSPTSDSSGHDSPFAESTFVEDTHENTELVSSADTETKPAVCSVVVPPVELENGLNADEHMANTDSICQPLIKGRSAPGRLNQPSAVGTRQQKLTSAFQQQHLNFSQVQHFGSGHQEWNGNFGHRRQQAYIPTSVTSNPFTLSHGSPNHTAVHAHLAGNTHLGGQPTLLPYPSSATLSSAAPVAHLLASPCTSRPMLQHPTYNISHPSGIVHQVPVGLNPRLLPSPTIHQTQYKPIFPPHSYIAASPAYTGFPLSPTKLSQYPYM

`CC(C)c1cnn2c(NCc3ccccc3)cc(NCCCCCCCN)nc12` [BS-181] was tested, and the remaining activity at 10 µM (HIPK3) was 90%, the “Inhibition of phosphorylation of RNA polymerase II” value [1] was “capable of inhibiting phosphorylation of RNAPolymerase II” and the “Change in animal weight” value (MCF-7 tumors) was “nearly constant”. The “Increase in tumor volume relative to day one” value (MCF-7 tumors; different doses) was “increased more slowly with increasing dosage”.
`CC(C)c1cnn2c(NCc3ccccc3)cc(N[C@@H](CO)[C@H](O)CO)nc12` [ICEC0318, (3S)-3-(7-(Benzylamino)-3-isopropylpyrazolo[1,5-a]pyrimidin-5-ylamino)butane-1,2,4-triol] gave a GI50 (MOLT-4 [2]; MOLT-4) of 259 nM, a CC50 (MOLT-4 [2]; MOLT-4, read-out: LC50) of over 100000 nM and a GI50 (SK-MEL-5; SK-MEL-5) of 192 nM. For the same molecule, the CC50 (SK-MEL-5; SK-MEL-5, read-out: LC50) was 5980 nM, the GI50 (NCI-H226; NCI-H226) was 272 nM and the CC50 (NCI-H226; NCI-H226, read-out: LC50) was over 100000 nM. The TGI (SF-268; SF-268 (CNS Cancer)) was 3.12E−5, the “Mean Optical Densities” value (SF-268; [4]) was 0.404 and the “Percent Growth” value (SF-268; [4]) was −5%. For the same molecule, the “Mean Optical Densities” value (SF-268; [5]) was 0.460, the “Percent Growth” value (SF-268; [5]) was 5% and the “Mean Optical Densities” value (SF-268; [6]) was 0.452. The “Percent Growth” value (SF-268; [6]) was 4%, the “Mean Optical Densities” value (SF-268; [7]) was 1.234 and the “Percent Growth” value (SF-268; [7]) was 99%. The “Mean Optical Densities” value (SF-268; [8]) was 1.291, the “Percent Growth” value (SF-268; [8]) was 106% and the TGI (NCI-H522; NCI-H522 (Non-Small Cell Lung Cancer)) was 2.13E−6. The “Mean Optical Densities” value (NCI-H522; [9]) was 0.741, the “Percent Growth” value (NCI-H522; [9]) was −17% and the “Mean Optical Densities” value (NCI-H522; [10]) was 0.640. For the same molecule, the “Percent Growth” value (NCI-H522; [10]) was −29%, the “Mean Optical Densities” value (NCI-H522; [11]) was 1.075 and the “Percent Growth” value (NCI-H522; [11]) was 14%. The “Mean Optical Densities” value (NCI-H522; [12]) was 2.156, the “Percent Growth” value (NCI-H522; [12]) was 99% and the “Mean Optical Densities” value (NCI-H522; [13]) was 2.185. For the same molecule, the “Percent Growth” value (NCI-H522; [13]) was 101%, the GI50 (SR) was 75.8 nM and the CC50 (SR; read-out: LC50) was over 100000 nM. For the same molecule, the GI50 (NCI/ADR-RES) was 2040 nM, the CC50 (NCI/ADR-RES; read-out: LC50) was over 100000 nM and the GI50 (SK-MEL-2; SK-MEL-2) was 404 nM. For the same molecule, the CC50 (SK-MEL-2; SK-MEL-2, read-out: LC50) was over 100000 nM, the GI50 (M14; M14) was 305 nM and the CC50 (M14; M14, read-out: LC50) was 45200 nM. For the same molecule, the TGI (MOLT-4 [3]; MOLT-4 (Leukemia)) was over 1.00E−4, the “Mean Optical Densities” value (MOLT-4 [3]; [14]) was 0.449 and the “Percent Growth” value (MOLT-4 [3]; [14]) was 15%. The “Mean Optical Densities” value (MOLT-4 [3]; MOLT-4, log10 concentration −5.0) was 0.329, the “Mean Optical Densities” value (MOLT-4 [3]; [15]) was 0.368 and the “Percent Growth” value (MOLT-4 [3]; [15]) was 5%. The “Mean Optical Densities” value (MOLT-4 [3]; [16]) was 0.987, the “Percent Growth” value (MOLT-4 [3]; [16]) was 82% and the “Mean Optical Densities” value (MOLT-4 [3]; [17]) was 1.072. For the same molecule, the “Percent Growth” value (MOLT-4 [3]; [17]) was 92%, the GI50 (SNB-75; SNB-75) was 222 nM and the CC50 (SNB-75; SNB-75, read-out: LC50) was 1600 nM.
